According to PMC10683025, “Discovery of a Hydroxylamine-Based Brain-Penetrant EGFR Inhibitor for Metastatic Non-Small-Cell Lung Cancer” (Journal of Medicinal Chemistry, 2023):
Entries after “also recorded” stand apart in the source; their conditions may differ. Read-outs that look alike come from different tables or passages of the source.

Columns and labels:
[1] = In vitro metabolite identification; type: in vitro ADME; details: rat hepatocytes, 10 μM
TA1535 = test system: TA1535; set-up: species or system Salmonella
ACVR1B = molecular target: T1, ACVR1B (Homo sapiens, UniProt P36896); assay: KINOMEScan; type: binding; details: read-out: Percent Control
T1 construct: purchased Eurofins DiscoverX
T1 sequence (P36896 24-505): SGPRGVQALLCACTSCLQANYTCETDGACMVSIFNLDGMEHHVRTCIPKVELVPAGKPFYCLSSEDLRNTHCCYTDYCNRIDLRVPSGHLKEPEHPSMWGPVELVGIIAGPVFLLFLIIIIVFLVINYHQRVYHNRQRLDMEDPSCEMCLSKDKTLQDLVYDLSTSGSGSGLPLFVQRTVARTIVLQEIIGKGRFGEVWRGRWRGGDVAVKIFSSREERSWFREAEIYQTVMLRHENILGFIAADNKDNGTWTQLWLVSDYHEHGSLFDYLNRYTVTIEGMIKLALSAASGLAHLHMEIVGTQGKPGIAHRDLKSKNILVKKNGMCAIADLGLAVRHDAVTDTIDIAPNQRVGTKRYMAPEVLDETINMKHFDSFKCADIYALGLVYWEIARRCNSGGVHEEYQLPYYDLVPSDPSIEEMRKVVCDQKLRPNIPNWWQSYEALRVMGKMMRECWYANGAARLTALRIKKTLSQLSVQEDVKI
Excerpt: (§3) Percent control was mapped onto the kinome tree using TREEspot.

[2] = molecular target: T2, ABL1(Q252H)-phosphorylated (Homo sapiens, UniProt P00519, Q252H); assay: KINOMEScan; type: binding; details: read-out: Percent Control
T2 construct: purchased Eurofins DiscoverX
Excerpt: as §3

[3] = molecular target: T3, ABL1(T315I)-nonphosphorylated (Homo sapiens, UniProt P00519, T315I); assay: KINOMEScan; type: binding; details: read-out: Percent Control
T3 construct: purchased Eurofins DiscoverX
Excerpt: as §3

ALK(L1196M) = molecular target: T4, ALK(L1196M) (Homo sapiens, UniProt Q9UM73, L1196M); assay: KINOMEScan; type: binding; details: read-out: Percent Control
T4 construct: purchased Eurofins DiscoverX (KINOMEscan)
T4 sequence (Q9UM73 19-1620 L1196M): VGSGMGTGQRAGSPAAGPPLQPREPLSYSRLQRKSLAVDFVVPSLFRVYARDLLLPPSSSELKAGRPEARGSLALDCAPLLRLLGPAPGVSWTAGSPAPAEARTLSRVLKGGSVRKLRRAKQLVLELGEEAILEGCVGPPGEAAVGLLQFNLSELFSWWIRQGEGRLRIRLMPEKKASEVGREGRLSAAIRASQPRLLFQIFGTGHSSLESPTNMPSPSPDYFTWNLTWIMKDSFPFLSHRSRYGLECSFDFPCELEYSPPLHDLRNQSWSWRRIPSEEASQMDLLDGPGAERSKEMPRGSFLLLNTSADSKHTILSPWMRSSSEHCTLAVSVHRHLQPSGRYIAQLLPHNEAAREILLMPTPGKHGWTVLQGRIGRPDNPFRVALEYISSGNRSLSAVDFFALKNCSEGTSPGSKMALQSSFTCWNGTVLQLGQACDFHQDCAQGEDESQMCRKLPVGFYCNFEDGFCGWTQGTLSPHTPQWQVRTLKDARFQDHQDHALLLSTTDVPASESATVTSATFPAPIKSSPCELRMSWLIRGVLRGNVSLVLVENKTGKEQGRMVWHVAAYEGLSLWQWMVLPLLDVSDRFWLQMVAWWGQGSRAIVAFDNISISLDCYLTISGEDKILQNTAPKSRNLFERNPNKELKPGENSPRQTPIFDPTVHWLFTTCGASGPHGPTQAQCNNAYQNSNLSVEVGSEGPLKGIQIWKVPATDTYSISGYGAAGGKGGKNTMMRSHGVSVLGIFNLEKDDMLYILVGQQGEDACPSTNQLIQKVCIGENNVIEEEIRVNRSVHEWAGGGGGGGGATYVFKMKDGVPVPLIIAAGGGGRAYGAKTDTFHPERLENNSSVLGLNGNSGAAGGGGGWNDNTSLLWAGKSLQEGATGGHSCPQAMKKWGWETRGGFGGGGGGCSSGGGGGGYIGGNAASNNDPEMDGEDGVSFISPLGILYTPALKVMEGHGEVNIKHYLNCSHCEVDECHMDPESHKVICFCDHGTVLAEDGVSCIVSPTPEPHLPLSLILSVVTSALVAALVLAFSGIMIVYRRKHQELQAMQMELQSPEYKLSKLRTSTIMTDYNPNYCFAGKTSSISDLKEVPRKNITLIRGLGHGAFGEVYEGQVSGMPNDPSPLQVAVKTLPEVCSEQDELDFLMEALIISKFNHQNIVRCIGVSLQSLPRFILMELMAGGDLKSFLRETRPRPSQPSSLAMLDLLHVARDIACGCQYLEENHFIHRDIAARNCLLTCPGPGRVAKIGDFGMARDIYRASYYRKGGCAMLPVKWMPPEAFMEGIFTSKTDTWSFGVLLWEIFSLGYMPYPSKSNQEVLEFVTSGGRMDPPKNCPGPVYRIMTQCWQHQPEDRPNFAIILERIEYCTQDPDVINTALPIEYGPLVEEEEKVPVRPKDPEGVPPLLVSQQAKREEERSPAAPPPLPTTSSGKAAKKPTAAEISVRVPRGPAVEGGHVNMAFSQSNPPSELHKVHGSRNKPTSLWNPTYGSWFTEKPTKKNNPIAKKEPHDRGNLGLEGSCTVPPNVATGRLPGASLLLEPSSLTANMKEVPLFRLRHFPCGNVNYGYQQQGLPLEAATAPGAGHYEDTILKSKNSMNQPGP
Excerpt: as §3

AKT1 = molecular target: T5, AKT1 (Homo sapiens, UniProt P31749); assay: KINOMEScan; type: binding; details: AKT1, 1 µM; read-out: Percent Control
T5 construct: purchased Eurofins DiscoverX (KINOMEscan)
T5 sequence (P31749 whole entry): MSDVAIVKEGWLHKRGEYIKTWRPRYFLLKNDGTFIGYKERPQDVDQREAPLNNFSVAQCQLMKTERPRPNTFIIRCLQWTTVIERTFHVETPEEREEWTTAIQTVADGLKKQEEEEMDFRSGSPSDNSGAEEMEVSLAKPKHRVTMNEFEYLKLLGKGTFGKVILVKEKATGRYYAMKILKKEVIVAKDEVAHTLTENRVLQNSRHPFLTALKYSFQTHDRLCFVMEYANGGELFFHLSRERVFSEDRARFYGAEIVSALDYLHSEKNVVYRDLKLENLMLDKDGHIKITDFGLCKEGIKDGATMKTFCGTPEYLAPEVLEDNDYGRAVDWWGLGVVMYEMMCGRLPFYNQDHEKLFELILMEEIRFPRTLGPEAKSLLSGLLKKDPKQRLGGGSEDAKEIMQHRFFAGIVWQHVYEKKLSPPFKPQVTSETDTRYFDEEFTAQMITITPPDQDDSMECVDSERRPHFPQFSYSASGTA
Excerpt: as §3

panel of 468 kinases = assay: KINOMEScan selectivity scores
Excerpt: as §3

ABL2 = molecular target: T6, ABL2 (Homo sapiens, UniProt P42684); assay: KINOMEScan; type: binding; details: ABL2, 1 µM; read-out: Percent Control
T6 construct: purchased Eurofins DiscoverX
Excerpt: as §3

CHO-K1 cells = assay: In vitro micronucleus test; type: cell-based, Chinese hamster; details: ± rat liver S9; valid to 31 μM + S9 and 8 μM − S9
Procedure: Compound 9 was assessed for genotoxicity by Eurofins Panlabs using the in vitro micronucleus test in Chinese hamster ovary (CHO-K1) cells as previously described.[79] Compound 9 was incubated in a 96-well plate format at varying concentrations (8, 16, 31, 62, 125, 250, 500, and 1000 μM) for 4 h at 37 °C with metabolic activation by rat liver S9 and 24 h at 37 °C without metabolic activation by rat liver S9. High content analysis and fluorescence imaging were used to detect micronuclei and compared against positive controls (cyclophosphamide (ran at 7.2 μM) and mitomycin C (ran at 0.3 μM)). Significances of the positive counts between the treatment and control were determined by one-tailed t test with two-sample equal variance.

CYP1A2 = molecular target: T7, CYP1A2 (Homo sapiens, UniProt P05177); assay: CYP450 inhibition in human liver microsomes; type: in vitro ADME
T7 construct: tissue BD Gentest; host or cells: pooled human liver microsomes
T7 sequence (P05177 whole entry): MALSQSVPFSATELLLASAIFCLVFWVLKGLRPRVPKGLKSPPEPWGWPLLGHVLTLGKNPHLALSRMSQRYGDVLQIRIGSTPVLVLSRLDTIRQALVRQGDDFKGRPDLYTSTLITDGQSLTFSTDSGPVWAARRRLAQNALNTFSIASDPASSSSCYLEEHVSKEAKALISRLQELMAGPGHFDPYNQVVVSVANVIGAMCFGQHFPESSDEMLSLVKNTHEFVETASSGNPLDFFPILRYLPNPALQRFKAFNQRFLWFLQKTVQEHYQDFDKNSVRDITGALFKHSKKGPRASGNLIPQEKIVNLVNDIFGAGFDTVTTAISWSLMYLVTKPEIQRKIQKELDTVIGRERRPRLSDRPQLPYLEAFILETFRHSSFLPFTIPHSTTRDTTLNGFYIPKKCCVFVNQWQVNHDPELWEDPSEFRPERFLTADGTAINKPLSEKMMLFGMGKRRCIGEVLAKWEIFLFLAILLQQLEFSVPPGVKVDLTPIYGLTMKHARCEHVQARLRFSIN
Procedure: The activities tested were CYP1A2-mediated phenacetin O-demethylation, CYP2C19-mediated (S)-mephenyotin 4′-hydroxylation, CYP2C9-mediated diclofenac 4′-hydroxylation, CYP2D6-mediated dextromethorphan O-demethylation, and CYP3A4-mediated midazolam 1′-hydroxylation. […] The reactions were initiated by adding NADPH (1 mM final concentration) after a 5 min preincubation, and the assay was run in duplicate (n = 2). Samples were analyzed by ultra-performance liquid chromatography tandem mass spectrometry (UPLC-MS/MS).

YSK4 = molecular target: T8, YSK4 (Homo sapiens, UniProt Q56UN5); assay: KINOMEScan; type: binding; details: YSK4, 1 µM; read-out: Percent Control
T8 construct: purchased Eurofins DiscoverX (KINOMEScan service)
T8 sequence (Q56UN5 whole entry): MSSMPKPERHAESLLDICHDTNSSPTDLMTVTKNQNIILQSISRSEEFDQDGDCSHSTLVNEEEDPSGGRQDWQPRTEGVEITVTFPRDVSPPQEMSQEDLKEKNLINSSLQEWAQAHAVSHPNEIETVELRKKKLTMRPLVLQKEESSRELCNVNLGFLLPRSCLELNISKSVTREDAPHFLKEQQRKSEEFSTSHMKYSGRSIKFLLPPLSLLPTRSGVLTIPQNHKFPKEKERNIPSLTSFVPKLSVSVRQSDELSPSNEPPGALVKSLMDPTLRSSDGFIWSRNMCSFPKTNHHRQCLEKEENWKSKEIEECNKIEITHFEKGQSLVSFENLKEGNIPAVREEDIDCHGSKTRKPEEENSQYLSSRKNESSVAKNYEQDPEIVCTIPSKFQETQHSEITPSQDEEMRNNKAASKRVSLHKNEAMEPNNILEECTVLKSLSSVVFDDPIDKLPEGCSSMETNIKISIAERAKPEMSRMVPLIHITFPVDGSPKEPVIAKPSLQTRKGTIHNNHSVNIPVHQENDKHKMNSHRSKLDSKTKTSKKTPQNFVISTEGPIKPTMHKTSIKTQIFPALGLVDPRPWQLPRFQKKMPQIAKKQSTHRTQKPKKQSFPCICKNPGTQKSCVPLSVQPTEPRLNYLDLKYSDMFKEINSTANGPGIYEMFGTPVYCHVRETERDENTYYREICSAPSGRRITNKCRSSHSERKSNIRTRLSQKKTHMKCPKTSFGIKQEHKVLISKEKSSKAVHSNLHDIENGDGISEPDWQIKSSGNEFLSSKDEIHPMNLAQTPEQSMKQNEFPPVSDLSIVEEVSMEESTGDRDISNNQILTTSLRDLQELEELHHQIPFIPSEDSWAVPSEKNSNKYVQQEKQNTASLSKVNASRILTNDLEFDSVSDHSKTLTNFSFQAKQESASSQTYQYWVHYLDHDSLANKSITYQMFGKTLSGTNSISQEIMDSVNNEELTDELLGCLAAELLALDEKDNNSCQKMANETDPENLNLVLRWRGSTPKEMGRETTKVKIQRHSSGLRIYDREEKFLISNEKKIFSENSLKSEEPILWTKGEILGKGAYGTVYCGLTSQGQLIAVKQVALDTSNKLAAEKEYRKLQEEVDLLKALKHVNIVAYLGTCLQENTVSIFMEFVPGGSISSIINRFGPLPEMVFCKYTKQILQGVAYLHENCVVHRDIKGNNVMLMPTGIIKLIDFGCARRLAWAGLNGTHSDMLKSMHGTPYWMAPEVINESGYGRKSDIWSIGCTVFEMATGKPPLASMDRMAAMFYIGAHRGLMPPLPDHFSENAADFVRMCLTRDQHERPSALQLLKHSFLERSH

[4] = test system: A431 cell line (overexpressed EGFRwt); assay: CellTiter-Glo cell viability assay; type: cell-based, human; details: Homo sapiens, A-431; 72 h, unadjusted for FBS
Procedure: (§1) The A431, HCC827, SK-BR-3, ZR-75–30, AU565, and Caco-2 cell lines were obtained from ATCC. The NCI-H1975 cell line was obtained from SIBS. The NCI-H3255 cell line was obtained from CoBioer. Engineered Ba/F3 cell lines were obtained from Crown Bioscience. MCKII-MDR1 cells were obtained from The Netherlands Cancer Institute. HEK293 cells were obtained from Invitrogen. A431 cells were cultured in DMEM (Life Technologies) with 10% FBS. HCC827, NCI-H1975, and AU565 cells were cultured in RPMI1640 (Invitrogen) with 10% FBS. NCI-H3255 cells were cultured in BEGM (Lonza) with 10% FBS. Ba/F3 EGFR-del E746_A750/C797S and Ba/F3 EGFR-L858R/C797S cells were cultured in RPMI (Invitrogen) with 10% FBS. SK-BR-3 cells were cultured in McCoy’s 5a (Invitrogen) with 10% FBS. ZR-75-30 cells were cultured in RPMI1640 (Invitrogen) with 20% FBS. Caco-2 and MCKII-MDR1 culture information is given in the Permeability Studies section. HEK293 cells were cultured in DMEM (Gibco) with 10% FBS, 0.1 mM NEAA, 25 mM HEPES, 100 U/mL penicillin-streptomycin, μg/mL blasticidin, and 400 μg/mL Geneticin. All cells were cultured in a humidified incubator with 5% CO2 at 37 °C.
(§2) Viability assays using A431, HCC827, NCI-H1975, NCI-H3255, Ba/F3 EGFR-del E746_A750/C797S, Ba/F3 EGFR-L858R/C797S, AU565, SK-BR-3, and ZR-75-30 cells were performed at Crown BioScience. Cells were plated into 96-well plates at 1500–7000 cells per well and dosed in triplicate (n = 3) in a nine-point, 4-fold dilution series with compounds (0.15 nM to 10 μM) in DMSO and incubated for 72 h. After 72 h, cell viability was assayed by CellTiter-Glo Luminescent Viability Assay (Promega). Dose–response curves were generated and used to calculate the IC50 values which were calculated on GraphPad Prism from the nonlinear regression equation fitted with a sigmoidal dose response and are presented as mean ± SEM.

[5] = test system: ZR-75-30 (HER2-positive breast cancer); assay: CellTiter-Glo cell viability assay; type: cell-based, human; details: Homo sapiens, ZR-75-30; 72 h, unadjusted for FBS
Procedure: as §1, §2

[6] = test system: NCI-H1975 (EGFR mutation = L858R/T790M); assay: CellTiter-Glo cell viability assay; type: cell-based, human; details: Homo sapiens, NCI-H1975; 72 h, unadjusted for FBS
Procedure: as §1, §2

[7] = test system: AU565 (HER2-positive breast cancer); assay: CellTiter-Glo cell viability assay; type: cell-based, human; details: Homo sapiens, AU565; 72 h, unadjusted for FBS
Procedure: as §1, §2

[8] = test system: SK-BR-3 (HER2-positive breast cancer); assay: CellTiter-Glo cell viability assay; type: cell-based, human; details: Homo sapiens, SK-BR-3; 72 h, unadjusted for FBS
Procedure: as §1, §2

WEE1 = molecular target: T9, WEE1 (Homo sapiens, UniProt P30291); assay: KINOMEScan; type: binding; details: WEE1, 1 µM; read-out: Percent Control
T9 construct: purchased Eurofins DiscoverX
T9 sequence (P30291 whole entry): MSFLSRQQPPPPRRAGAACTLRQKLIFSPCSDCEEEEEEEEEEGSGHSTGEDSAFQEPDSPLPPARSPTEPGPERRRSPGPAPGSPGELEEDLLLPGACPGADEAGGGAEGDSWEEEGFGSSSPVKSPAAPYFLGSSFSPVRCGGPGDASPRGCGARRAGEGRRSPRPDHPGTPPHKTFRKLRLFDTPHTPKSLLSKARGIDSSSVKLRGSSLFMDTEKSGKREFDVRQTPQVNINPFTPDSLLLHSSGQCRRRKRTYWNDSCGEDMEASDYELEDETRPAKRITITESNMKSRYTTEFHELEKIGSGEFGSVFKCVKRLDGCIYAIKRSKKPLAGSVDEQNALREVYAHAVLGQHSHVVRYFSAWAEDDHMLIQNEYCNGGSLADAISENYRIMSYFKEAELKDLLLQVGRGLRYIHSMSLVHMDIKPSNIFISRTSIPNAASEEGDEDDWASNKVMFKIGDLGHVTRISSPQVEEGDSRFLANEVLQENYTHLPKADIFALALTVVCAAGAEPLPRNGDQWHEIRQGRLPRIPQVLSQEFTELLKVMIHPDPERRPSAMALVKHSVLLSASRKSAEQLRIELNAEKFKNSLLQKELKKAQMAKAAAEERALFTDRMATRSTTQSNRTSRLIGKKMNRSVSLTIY
Excerpt: as §3

For `COc1cc2ncnc(Nc3cccc(Cl)c3F)c2cc1OCCON1CCN(C)CC1` [Compound 9, N-(3-Chloro-2-fluorophenyl)-7-methoxy-6-(2-((4-methylpiperazin-1-yl)oxy)ethoxy)quinazolin-4-amine], the “share of parent/metabolite after incubation of 9” value [1] was 1.11%, the “Count (# of wells)” value (TA1535; TA1535+S9, 1.0E-04 M) was 0 and the “Positive Significance (- to +++)” value (TA1535; TA1535+S9, 1.0E-04 M) was “-”. The “Count (# of wells)” value (TA1535; TA1535+S9, 1.0E-05 M) was 3, the “Positive Significance (- to +++)” value (TA1535; TA1535+S9, 1.0E-05 M) was “-” and the “Count (# of wells)” value (TA1535; TA1535+S9, 5.0E-05 M) was 0. The “Positive Significance (- to +++)” value (TA1535; TA1535+S9, 5.0E-05 M) was “-”, the “Count (# of wells)” value (TA1535; TA1535+S9, 5.0E-06 M) was 1 and the “Positive Significance (- to +++)” value (TA1535; TA1535+S9, 5.0E-06 M) was “-”. The “Count (# of wells)” value (TA1535; TA1535-S9, 1.0E-04 M) was 0, the “Positive Significance (- to +++)” value (TA1535; TA1535-S9, 1.0E-04 M) was “-” and the “Count (# of wells)” value (TA1535; TA1535-S9, 1.0E-05 M) was 0. For the same molecule, the “Positive Significance (- to +++)” value (TA1535; TA1535-S9, 1.0E-05 M) was “-”, the “Count (# of wells)” value (TA1535; TA1535-S9, 5.0E-05 M) was 0 and the “Positive Significance (- to +++)” value (TA1535; TA1535-S9, 5.0E-05 M) was “-”. The “Count (# of wells)” value (TA1535; TA1535-S9, 5.0E-06 M) was 0, the “Positive Significance (- to +++)” value (TA1535; TA1535-S9, 5.0E-06 M) was “-” and the remaining binding at 1 µM (ACVR1B) was 86%. It also gave a remaining binding at 1 µM [2] of 8.8%, a remaining binding at 1 µM [3] of 68% and a remaining binding at 1 µM (ALK(L1196M)) of 100%. The remaining binding at 1 µM (AKT1) was 100%, the “Number of Hits S(1)” value (panel of 468 kinases; percent control < 1, of 403) was 2 and the “Number of Hits S(10)” value (panel of 468 kinases; percent control < 10, of 403) was 6. The “Number of Hits S(35)” value (panel of 468 kinases; percent control < 35, of 403) was 12, the remaining binding at 1 µM (ABL2) was 64% and the In vitro micronucleus (CHO-K1 cells) was “neither mutagenic nor genotoxic potential; also recorded: Negative”. For the same molecule, the IC50 (CYP1A2) was > 30000 nM, the remaining binding at 1 µM (YSK4) was 46% and the IC50 [4] was 83 nM. For the same molecule, the IC50 [5] was 1630 nM, the IC50 [6] was > 10000 nM and the IC50 [7] was 986 ± 138 nM. The IC50 [8] was 1510 nM and the remaining binding at 1 µM (WEE1) was 100%.
